Data taken from ChEMBL document CHEMBL1135210, “Succinimide hydroxamic acids as potent inhibitors of histone deacetylase (HDAC)” (Bioorg Med Chem Lett, 2002).

Experiments:
Histone deacetylase = assay: Concentration required to inhibit Histone Deacetylase (HDAC) from K562 erythroleukemia cells; format: cell-based, Homo sapiens
HT-1080 = assay: Concentration required for the antiproliferation of Human HT1080 fibrosarcoma cells; format: functional, cell-based
cells = format: functional; conditions: Homo sapiens, MDA435
Description: Concentration required for the antiproliferation of Human MDA-435 breast carcinoma cells

Question: For `O=C(CCCCCNC(=O)[C@H](Cc1ccccc1)N1CCCC1=O)NO`, which IC50 (Histone deacetylase) is on record?
Answer: > 5000 nM

Question: Which IC50 (Histone deacetylase) does the source give for `CCC[C@H]1C(=O)N([C@@H](Cc2ccccc2)C(=O)NCCCCCC(=O)NO)C(=O)[C@@H]1CC(C)C` here?
Answer: 51 nM

Question: What about the IC50 (HT-1080) of the same compound?
Answer: 400 nM

Question: What about the IC50 (cells) of the same compound?
Answer: 570 nM

Question: Which IC50 (Histone deacetylase) does the source give for `CCC[C@H]1C(=O)N([C@@H](Cc2ccc(OC)cc2)C(=O)NCCCCCC(=O)NO)C(=O)[C@@H]1CC(C)C` here?
Answer: 38 nM

Question: What about the IC50 (HT-1080) of the same compound?
Answer: 530 nM

Question: What about the IC50 (cells) of the same compound?
Answer: 180 nM

Question: Which IC50 (Histone deacetylase) does the source give for `CC(C)C[C@@H]1CC(=O)N(CC(=O)NCCCCCC(=O)NO)C1=O` here?
Answer: 5000 nM

Question: What does the source list for `CC(C)C[C@@H]1CC(=O)N([C@@H](Cc2ccccc2)C(=O)NCCCCCC(=O)NO)C1=O`?
Answer: IC50 (Histone deacetylase): 99 nM; IC50 (HT-1080): 2300 nM; IC50 (cells): 670 nM

Question: Which IC50 (Histone deacetylase) does the source give for `CC(C)C[C@H]1C(=O)N2C[C@@H]1CCCCCOc1ccc(cc1)C[C@H]2C(=O)NCCCCCC(=O)NO` here?
Answer: 38 nM

Question: What about the IC50 (HT-1080) of the same compound?
Answer: 250 nM

Question: What about the IC50 (cells) of the same compound?
Answer: 150 nM

Question: With `CC(C)C[C@@H]1CC(=O)N([C@@H](CC2CCCCC2)C(=O)NCCCCCC(=O)NO)C1=O` as the compound, how does the IC50 (Histone deacetylase) read?
Answer: 640 nM

Question: Which IC50 (Histone deacetylase) does the source give for `O=C(CCCCCNC(=O)[C@H](Cc1ccccc1)N1C(=O)CCC1=O)NO` here?
Answer: 660 nM

Question: And the IC50 (HT-1080)?
Answer: 14000 nM

Question: What about the IC50 (cells) of the same compound?
Answer: 10000 nM

Question: Which IC50 (Histone deacetylase) does the source give for `CC(C)C[C@H]1CN[C@H](C(=O)NCCCCCC(=O)NO)Cc2ccc(cc2)OCCCCC[C@H]1C(=O)OC(C)(C)C` here?
Answer: 2.1 nM

Question: For `CC(C)C[C@H]1C(=O)N([C@@H](Cc2ccccc2)C(=O)NCCCCCC(=O)NO)C(=O)C12CCCC2`, which IC50 (Histone deacetylase) is on record?
Answer: 66 nM

Question: What about the IC50 (HT-1080) of the same compound?
Answer: 1500 nM

Question: And the IC50 (cells)?
Answer: 700 nM

Question: For `CNCC(=O)[C@@H](Cc1ccccc1)NC(=O)CCCCCCC(=O)NO`, which IC50 (Histone deacetylase) is on record?
Answer: 1400 nM
